We go through 18 compounds from patent US10940139B2, “Compounds that interact with the Ras superfamily for the treatment of cancers, inflammatory diseases, rasopathies, and fibrotic disease” (Shy Therapeutics LLC, priority 2017, dated 2021).

In one assay the target is Rho-A (Homo sapiens (Human), UniProt P61586). Nature of the assay: Rho inhibition assay (labeled GTP). It is filed as binding. The settings on record: read-out: Rho-A % Inh.
For another assay, the target named is Rac-1 (Homo sapiens (Human), UniProt P63000). Kind of assay: Rac inhibition assay (labeled GTP). Type of assay: binding. The settings on record: read-out: Rac-1 % Inh.
Assay [1] deals with KRas G12D/Q61H double mutant (Homo sapiens (Human), UniProt P01116, G12D/Q61H). Kind of assay: Ras GTP binding domain inhibition assay (labeled GTP). The settings on record: at 20 μM; read-out: KRas G12D Q61H % Inh. In short, it runs like this:
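Inhibition of labeled GTP binding is measured on immobilized His-KRas protein in Tris buffer pH 7.5 with 1 mM MgCl2 and 1 mM DTT.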

Sequence of KRas G12D/Q61H double mutant (P01116-2 other isoform, or with tags, fused parts or gaps G12D/Q61H): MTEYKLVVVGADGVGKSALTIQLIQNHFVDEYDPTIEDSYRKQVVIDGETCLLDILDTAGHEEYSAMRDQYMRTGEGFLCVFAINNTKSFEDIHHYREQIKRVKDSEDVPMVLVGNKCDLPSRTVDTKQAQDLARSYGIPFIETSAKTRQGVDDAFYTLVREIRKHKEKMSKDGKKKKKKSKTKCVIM
Sequence of Rho-A (P61586 whole entry): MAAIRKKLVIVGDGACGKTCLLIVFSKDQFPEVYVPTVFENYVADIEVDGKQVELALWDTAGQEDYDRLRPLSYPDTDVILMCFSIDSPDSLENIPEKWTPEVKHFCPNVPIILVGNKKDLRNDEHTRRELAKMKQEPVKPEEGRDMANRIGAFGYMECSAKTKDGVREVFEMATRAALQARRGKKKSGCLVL

In the case of `Cc1sc2c(N)nc(-c3ccccn3)nc2c1Br` [drawing 3765], the inhibition at 20 µM (at Rho-A; on Rac-1; in assay [1]) was 25 to 50% in each case.

On to `O=C(c1csc2c(O)nc(-c3ccccn3)nc12)N1CCNC(Cc2cccc(F)c2)C1` (stereo not drawn) [drawing 3704], for which the inhibition at 20 µM (at Rho-A; at Rac-1; in assay [1]) was 51 to 75% each time.

Consider `COC(=O)c1cc2nc(-c3ccccn3)nc(O)c2s1` [drawing 3779], for which the inhibition at 20 µM lay in the range of 76 to 100% on Rho-A, 51 to 75% on Rac-1 and 51 to 75% in assay [1].

Regarding `Nc1nc(-c2ccccn2)nc(C(=O)NCCc2ccncc2)c1Oc1ccccc1` [drawing 3869], the inhibition at 20 µM on Rho-A fell in the range of 25 to 50%; on Rac-1, 51 to 75%; in assay [1], 25 to 50%.

Regarding `Nc1nc(-c2ccccn2)nc2c(Br)csc12` [drawing 3764], the inhibition at 20 µM at Rho-A fell in the range of 51 to 75%; on Rac-1 it was 51 to 75%; in assay [1], 25 to 50%.

As to `O=C(c1csc2c(O)nc(-c3ccccn3)nc12)N1CCNC(c2ccccc2Cl)C1` (stereo not drawn) [drawing 3695], the inhibition at 20 µM at Rho-A lay in the range of 76 to 100%; at Rac-1, 76 to 100%; in assay [1], 25 to 50%.

As for `COc1ccc(N2CCN(C(=O)c3csc4c(O)nc(-c5ccccn5)nc34)CC2)cc1O` [drawing 3691], the inhibition at 20 µM was 76 to 100% at Rho-A, 76 to 100% on Rac-1 and 1 to 25% in assay [1].

As for `COc1ccc2c(c1)CCC2C(=O)Nc1ccnc(-c2ccccn2)n1` (stereo not drawn) [drawing 3684], the inhibition at 20 µM at Rho-A was in the range of 51 to 75%; at Rac-1 it was 51 to 75%; in assay [1] it was 1 to 25%.

`O=C(NCCc1cncnc1)c1csc2nc(-c3ccccn3)nc(N3CCOCC3)c12` [drawing 3673]: the results for the inhibition at 20 µM (on Rho-A; at Rac-1; in assay [1]) were 51 to 75%, 51 to 75% and 1 to 25%, respectively.

As for `N#Cc1ccc(N2CCN(C(=O)c3csc4c(O)nc(-c5ccccn5)nc34)CC2)cc1` [drawing 3645], the inhibition at 20 µM at Rho-A was 51 to 75%; on Rac-1, 51 to 75%; in assay [1], 0%.

Regarding `Oc1nc(-c2ccccn2)nc2c(CC3CCCNC3)csc12` (stereo not drawn) [drawing 3807], the inhibition at 20 µM on Rho-A was 76 to 100%; at Rac-1 it was 51 to 75%; in assay [1], 25 to 50%.

Consider `COc1ccccc1C1CN(C(=O)c2csc3c(O)nc(-c4ccccn4)nc23)CCO1` (stereo not drawn) [drawing 3656], for which the inhibition at 20 µM was in the range of 76 to 100% at Rho-A, 76 to 100% on Rac-1 and 51 to 75% in assay [1].

As for `COCCNc1nc(-c2ccccn2)nc(-c2cccc(OCCN(C)C)c2)c1Oc1ccccc1` [drawing 3847], the inhibition at 20 µM (on Rho-A; on Rac-1; in assay [1]) was 1 to 25% in each case.

For `COc1cc(CCNC(=O)c2csc3nc(-c4ccccn4)nc(N4CCOCC4)c23)ccn1` [drawing 3636], the inhibition at 20 µM on Rho-A lay within 25 to 50%; at Rac-1, 51 to 75%; in assay [1] it was 1 to 25%.

With `O=C(c1csc2c(O)nc(-c3ccccn3)nc12)N1CCOC(CN2CCOCC2)C1` (stereo not drawn) [drawing 3694], the inhibition at 20 µM at Rho-A was 51 to 75%; at Rac-1 it was 76 to 100%; in assay [1] it was 1 to 25%.

Turning to `Oc1nc(-c2ccccn2)nc2c(-c3ccc(OC4CCOC4)cc3)csc12` (stereo not drawn) [drawing 3734], the figures for the inhibition at 20 µM (at Rho-A; on Rac-1; in assay [1]) were 76 to 100%, 51 to 75% and 25 to 50%, respectively.

As to `O=C(c1csc2c(O)nc(-c3ccccn3)nc12)N1CCOC(c2ccccc2)C1` (stereo not drawn) [drawing 3655], the figures for the inhibition at 20 µM (on Rho-A; at Rac-1; in assay [1]) were 51 to 75%, 25 to 50% and 1 to 25%, respectively.

`COc1cc(CCN(C)C(=O)c2csc3nc(-c4ccccn4)nc(N4CCOCC4)c23)ccn1` [drawing 3670]: the inhibition at 20 µM at Rho-A is 51 to 75%; at Rac-1, 76 to 100%; in assay [1], 0%.
